Source: patent publication US20210379077A1, “TOPOISOMERASE II CATALYTIC INHIBITOR COMPOUND THERAPEUTICS FOR CANCER TREATMENT, METHODS AND USES” (The University of British Columbia, priority 2018, published 2021)
Entries after “also recorded” stand apart in the source; their conditions may differ.

Columns and labels:
[1] = test system: Cancer Cell; assay: Cancer cell growth inhibition; type: cell-based; design: key: Y is an indication that activity was found
Description: (§1) BrDU incorporation and cell proliferation assays—Cell proliferation rates were measured by using the CellTitre™ 96 AqueousOne™ kit (Promega™) and bromodeoxyuridine (BrdU) assay kit (Millipore™) according to the manufacturer's protocol, with minor modifications as we have previously described by Li H. et al.^19

[2] = test system: pHOT plasmid DNA; assay: DNA intercalating assay; conditions: 0, 5, 10, 25 and 50 μM, compared with m-AMSA
Description: DNA samples were separated by electrophoresis on 0.8% agarose gels and visualized by ethium bromide staining. The positions of K-DNA and decatenated (D) DNA products are marked by arrows. Experiments were repeated five times and the densitometry of the D bands were used to establish an inhibition curve to calculate IC50. (b) Supercoiled pHOT™ plasmid was incubated with human TOP2a in the presence of 50 μM Etopside, 50 uM ICRF193 or 0-50 μM of compound #60 (Top60) compound at 37° C. for 1 hour. DNA products were separated by electrophoresis on 1% agarose gels and visualized by ethium bromide staining. The positions of supercoiled (SC), nicked (N), and relaxed (R) DNA bands are marked by arrows. Experiments were repeated five times and the densitometiy of the SC bands were used to establish an inhibition curve to calculate IC50. (c) Supercoiled pHOT™ plasmid was incubated with Topoisomerase I prior to addition of either mAMSA or compound #60 (Top60) at concentrations of 0, 5, 10, 25 and 50 μM at 37° C. for 30 minutes. […]
Top60 is a catalytic inhibitor of Topo II To verify that our lead Compound 60(Top60), the formation of ds DNA breaks was assayed both in and outside of cells. […] Furthermore, H2AXγ protein expression was assessed by Western blot to determine if the lead compound could cause DNA damage in cells, and compared to Etoposide as a control (FIG. 3b). […]

[3] = test system: K562 cells; assay: MTS cell proliferation assay; type: cell-based; conditions: 0-20 μM 48 hours, 20 μM 0-72 hours, listed as Top60
Description: Cytotoxicity was evaluated by measuring LDH levels from cell culture media; (b) K562 cells were treated with either vehicle or 10-20 μM of Top60, Etoposide and ICRF187 for 4 hours. Whole cell lyses were collected to measure γH2AX levels with vinculin as the loading control; (c) K562 cells were treated with 0, 1, 5, 10, 15 and 20 μM of Top60, 20 μM Etoposide or 20 uM ICRF187 for 48 hours. Cell proliferation rates were determined by MTS assays; and (d) K562 cells were treated with 20 μM of Top60, Etoposide or ICRF187 for 0, 24, 48 and 72 hours. Cell proliferation rates were measured by MTS assays. All results were collected from three independent experiments.
as §1

[4] = target: Topo IIα (Homo sapiens, UniProt P11388); assay: Thermal shift assay in cells; type: binding; design: endogenous in cells; host or cells: K562; conditions: K562 cells, 20 μM
Description: Whole cell lyses were collected and used to measure protein levels of TOP2α, TOP2β with β-Actin as a loading control; (b) K562 cells were treated with 0, 1, and 10 μM of Top60 for 24 hours. Protein lyses were collected from soluble nuclear extract, chromatin fraction or whole cell lysate. TOP2α and TOP2β protein levels were determined by immunoblotting with Lamin A/C, Histone H3 and β-Actin as loading controls; and (c) Etoposide-resistant K562 cell line was established by treating cells with 0.5 μM of Etoposide for 6 months. TOP2α, TOP2β, and β-actin protein levels were determined by immunoblotting. Etoposide-resistant K562 cells were treated with 0, 1, 10, 15 and 20 μM of Top60, Etoposide or ICRF187 for 48 hours. Cell proliferation rates were determined by MTS assays.
Thermal shift and chromatin fraction assays—In the thermal shift assays, cells were treated with vehicle or compound #60 (Top60) for 1 hour, split into equal aliquots to be heated at 37 to 46 degrees in a PCR machine. Protein lyses were collected to perform immunoblotting assays with Topo II antibodies. In the chromatin fraction assays, cells were treated with vehicle or compound #60 (Top60). Both soluble and chromatin associated proteins were fractioned following the protocol described by Wysocka J et al.^18. Protein lyses were collected to perform immunoblotting assays with Topo II antibodies. […]

Topo IIα, sequence (P11388 whole entry): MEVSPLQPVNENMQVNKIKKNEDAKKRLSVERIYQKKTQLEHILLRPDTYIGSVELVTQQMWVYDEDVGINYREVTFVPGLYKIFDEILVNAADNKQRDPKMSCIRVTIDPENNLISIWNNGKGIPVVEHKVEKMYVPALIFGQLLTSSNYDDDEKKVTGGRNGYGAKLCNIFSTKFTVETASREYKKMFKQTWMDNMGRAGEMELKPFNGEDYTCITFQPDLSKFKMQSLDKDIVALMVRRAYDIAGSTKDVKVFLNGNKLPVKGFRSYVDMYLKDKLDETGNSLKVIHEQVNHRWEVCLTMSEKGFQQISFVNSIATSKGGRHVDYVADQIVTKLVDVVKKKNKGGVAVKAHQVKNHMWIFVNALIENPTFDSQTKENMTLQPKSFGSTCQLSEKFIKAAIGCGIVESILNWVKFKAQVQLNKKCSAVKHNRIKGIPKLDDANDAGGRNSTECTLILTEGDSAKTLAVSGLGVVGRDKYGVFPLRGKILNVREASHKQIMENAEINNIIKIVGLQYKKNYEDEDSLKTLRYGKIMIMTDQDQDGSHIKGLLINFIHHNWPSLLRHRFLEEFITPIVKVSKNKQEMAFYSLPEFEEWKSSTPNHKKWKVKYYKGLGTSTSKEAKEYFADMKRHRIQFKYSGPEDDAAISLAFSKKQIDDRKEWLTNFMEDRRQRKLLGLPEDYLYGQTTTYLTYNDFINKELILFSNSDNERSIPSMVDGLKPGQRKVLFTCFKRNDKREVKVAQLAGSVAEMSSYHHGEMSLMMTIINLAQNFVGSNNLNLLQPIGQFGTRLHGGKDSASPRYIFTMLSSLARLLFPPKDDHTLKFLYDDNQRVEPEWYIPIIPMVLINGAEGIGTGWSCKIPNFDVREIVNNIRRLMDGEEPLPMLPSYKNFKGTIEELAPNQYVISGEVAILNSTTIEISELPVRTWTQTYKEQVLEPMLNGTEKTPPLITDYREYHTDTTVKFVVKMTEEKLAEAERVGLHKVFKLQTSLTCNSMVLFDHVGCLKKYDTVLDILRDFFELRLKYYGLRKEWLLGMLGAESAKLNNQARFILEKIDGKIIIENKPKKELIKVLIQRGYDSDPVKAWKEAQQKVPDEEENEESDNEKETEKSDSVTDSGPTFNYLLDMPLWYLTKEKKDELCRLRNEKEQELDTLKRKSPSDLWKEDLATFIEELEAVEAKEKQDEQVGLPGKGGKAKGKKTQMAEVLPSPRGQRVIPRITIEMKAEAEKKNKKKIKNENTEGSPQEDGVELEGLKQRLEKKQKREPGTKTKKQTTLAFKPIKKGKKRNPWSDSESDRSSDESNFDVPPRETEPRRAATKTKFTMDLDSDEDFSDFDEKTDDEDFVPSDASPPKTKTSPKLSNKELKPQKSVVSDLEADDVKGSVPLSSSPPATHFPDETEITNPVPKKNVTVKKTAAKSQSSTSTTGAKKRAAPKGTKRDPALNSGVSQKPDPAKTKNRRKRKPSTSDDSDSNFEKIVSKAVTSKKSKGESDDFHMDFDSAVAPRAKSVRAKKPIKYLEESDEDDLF

O=C(Nc1ccc(Nc2ccccc2)cc1)c1ccc[nH]c1=S [Compound 60]
Cancer Cell Growth Inhib. [1]: Y
DNA intercalation [2]: not an intercalator
cell proliferation (MTS) [3]: strong inhibitory effects; also recorded: inhibits cell proliferation
temperature up to which Topo IIα was stabilized [4]: up to 43 °C
